Reference: patent publication US12433952B2, “Antibody-drug conjugates targeting folate receptor alpha and methods of use” (ZYMEWORKS BC INC., priority 2022, dated 2025)
Where two headings read alike, the source gives them in different places.

Tests used:
Experiment in all cases: In vitro cytotoxicity of camptothecin analogues (CellTiter-Glo)
Type in all cases: cell-based
Calu-3 (lung cancer) = details: Homo sapiens, Calu-3, 96 h, read-out: pIC50 Calu-3 (converted)
Experimental: (§1) Cytotoxicity of the camptothecin analogues was assessed in vitro as follows.
(§2) In vitro potency was assessed on multiple cancer cell lines: SK-BR-3 (breast cancer), SKOV-3 (ovarian cancer), Calu-3 (lung cancer), ZR-75-1 (breast cancer) and MDA-MB-468 (breast cancer). Serial dilutions of camptothecin analogues were prepared in RPMI 1640+10% FBS, and 20 μL of each dilution was added to 384-well plates. Cells cultured in log-phase growth were detached by brief incubation in 0.05% Trypsin and resuspended in respective culturing media at 20,000 cells/mL (with the exception of ZR-75 cells, which were resuspended at 10,000 cells/mL). 50 μL of cell suspension was then added to the plates containing test articles. Cells were incubated with test articles for 4 d at 37° C. (with the exception of ZR-75 cells, which were incubated for 5 d). Growth inhibition was assessed by CellTiter-Glo® (Promega Corporation, Madison, WI) and luminescence was measured on a plate reader. IC50 values were determined by GraphPad Prism (GraphPad Software, San Diego CA).

[1] = test system: MDA-MB-468 (breast cancer); details: Homo sapiens, MDA-MB-468, 96 h, read-out: pIC50 MDA-MB-468 (converted)
Experimental: as §1, §2

SK-BR-3 (breast cancer) = details: Homo sapiens, SK-BR-3, 96 h, read-out: pIC50 SKBR-3 (converted)
Experimental: as §1, §2

SKOV-3 (ovarian cancer) = details: Homo sapiens, SK-OV-3, 96 h, read-out: pIC50 SKOV-3 (converted)
Experimental: as §1, §2

ZR-75-1 (breast cancer) = details: Homo sapiens, ZR-75-1, 120 h, read-out: pIC50 ZR-75 (converted)
Experimental: as §1, §2

Row | SMILES | IC50 (Calu-3 (lung cancer)) [nM] | IC50 [1] [nM] | IC50 (SK-BR-3 (breast cancer)) [nM] | IC50 (SKOV-3 (ovarian cancer)) [nM] | IC50 (ZR-75-1 (breast cancer)) [nM] | IC50 (Calu-3 (lung cancer); 4 d incubation) [nM] | IC50 ([1]; 4 d incubation) [nM] | IC50 (SK-BR-3 (breast cancer); 4 d incubation) [nM] | IC50 (SKOV-3 (ovarian cancer); 4 d incubation) [nM] | IC50 (ZR-75-1 (breast cancer); 5 d incubation) [nM]
1 | CC[C@@]1(O)C(=O)OCc2c1cc1n(c2=O)Cc2c-1nc1cc(F)c(C)cc1c2CN1CCO[C@@H](CO)C1 [Compound 113, (S)-4-ethyl-8-fluoro-4-hydroxy-11-(((R)-2-(hydroxymethyl)morpholino)methyl)-9-methyl-1,12-dihydro-14H-pyrano[3′,4′:6,7]indolizino[1,2-b]quinoline-3,14(4H)-dione] | 3.02 | 3.39 | 1.95 | 4.27 | 2.19 |  |  |  |  | 
2 | CC[C@@]1(O)C(=O)OCc2c1cc1n(c2=O)Cc2c-1nc1cc(F)c(C)cc1c2CNS(C)(=O)=O [Compound 122, (S)—N-((4-ethyl-8-fluoro-4-hydroxy-9-methyl-3,14-dioxo-3,4,12,14-tetrahydro-1H-pyrano[3′,4′:6,7]indolizino[1,2-b]quinolin-11-yl)methyl)methanesulfonamide] | 3.72 | 1.1 | 1.12 | 9.12 | 1.29 |  |  |  |  | 
3 | CC[C@@]1(O)C(=O)OCc2c1cc1n(c2=O)Cc2c-1nc1cc(F)c(OC)cc1c2CNS(C)(=O)=O [Compound 123, (S)—N-((4-ethyl-8-fluoro-4-hydroxy-9-methoxy-3,14-dioxo-3,4,12,14-tetrahydro-1H-pyrano[3′,4′:6,7]indolizino[1,2-b]quinolin-11-yl)methyl)methanesulfonamide] |  |  |  |  |  | 3.72 | 2 | 1.91 | 19.5 | 2.45
4 | CC[C@@]1(O)C(=O)OCc2c1cc1n(c2=O)Cc2c-1nc1cc(F)c(C)cc1c2CNS(=O)(=O)c1ccccc1 [Compound 125, (S)—N-((4-ethyl-8-fluoro-4-hydroxy-9-methyl-3,14-dioxo-3,4,12,14-tetrahydro-1H-pyrano[3′,4′:6,7]indolizino[1,2-b]quinolin-11-yl)methyl)benzenesulfonamide] | 2.82 | 3.8 | 1.32 | 7.08 | 1.32 |  |  |  |  | 
5 | CC[C@@]1(O)C(=O)OCc2c1cc1n(c2=O)Cc2c-1nc1cc(F)c(OC)cc1c2CNS(=O)(=O)c1ccccc1 [Compound 126, (S)—N-((4-ethyl-8-fluoro-4-hydroxy-9-methoxy-3,14-dioxo-3,4,12,14-tetrahydro-1H-pyrano[3′,4′:6,7]indolizino[1,2-b]quinolin-11-yl)methyl)benzenesulfonamide] |  |  |  |  |  | 2.95 | 1.95 | 1.1 | 6.31 | 0.724
6 | CC[C@@]1(O)C(=O)OCc2c1cc1n(c2=O)Cc2c-1nc1cc(F)c(C)cc1c2CNS(=O)(=O)c1ccc(N)cc1 [Compound 127, (S)-4-amino-N-((4-ethyl-8-fluoro-4-hydroxy-9-methyl-3,14-dioxo-3,4,12,14-tetrahydro-1H-pyrano[3′,4′:6,7]indolizino[1,2-b]quinolin-11-yl)methyl)benzenesulfonamide] | 9.33 | 3.8 | 3.31 | 14.5 | 5.25 |  |  |  |  | 
7 | CC[C@@]1(O)C(=O)OCc2c1cc1n(c2=O)Cc2c-1nc1cc(F)c(C)cc1c2CNS(=O)(=O)CCO [Compound 129, (S)—N-((4-ethyl-8-fluoro-4-hydroxy-9-methyl-3,14-dioxo-3,4,12,14-tetrahydro-1H-pyrano[3′,4′:6,7]indolizino[1,2-b]quinolin-11-yl)methyl)-2-hydroxyethane-1-sulfonamide] |  |  |  |  |  | 5.25 | 3.98 | 3.09 | 20.4 | 2.63
8 | CC[C@@]1(O)C(=O)OCc2c1cc1n(c2=O)Cc2c-1nc1cc(F)c(C)cc1c2CNC(=O)NC [Compound 132, (S)-1-((4-ethyl-8-fluoro-4-hydroxy-9-methyl-3,14-dioxo-3,4,12,14-tetrahydro-1H-pyrano[3′,4′:6,7]indolizino[1,2-b]quinolin-11-yl)methyl)-3-methylurea] |  |  |  |  |  | 51.3 | 26.9 | 22.9 | 105 | 15.5
9 | CC[C@@]1(O)C(=O)OCc2c1cc1n(c2=O)Cc2c-1nc1cc(F)c(OC)cc1c2CNC(=O)NC [Compound 133, (S)-1-((4-ethyl-8-fluoro-4-hydroxy-9-methoxy-3,14-dioxo-3,4,12,14-tetrahydro-1H-pyrano[3′,4′:6,7]indolizino[1,2-b]quinolin-11-yl)methyl)-3-methylurea] |  |  |  |  |  | 12 | 10.7 | 6.76 | 74.1 | 9.77
10 | CC[C@@]1(O)C(=O)OCc2c1cc1n(c2=O)Cc2c-1nc1cc(F)c(C)cc1c2CNC(=O)NCc1ccc(N)cc1 [Compound 134, (S)-1-(4-aminobenzyl)-3-((4-ethyl-8-fluoro-4-hydroxy-9-methyl-3,14-dioxo-3,4,12,14-tetrahydro-1H-pyrano[3′,4′:6,7]indolizino[1,2-b]quinolin-11-yl)methyl)urea] |  |  |  |  |  | 24.5 | 11.5 | 9.55 | 77.6 | 12
11 | CC[C@@]1(O)C(=O)OCc2c1cc1n(c2=O)Cc2c-1nc1cc(F)c(C)cc1c2CNC(=O)NCCO [Compound 136, (S)-1-((4-ethyl-8-fluoro-4-hydroxy-9-methyl-3,14-dioxo-3,4,12,14-tetrahydro-1H-pyrano[3′,4′:6,7]indolizino[1,2-b]quinolin-11-yl)methyl)-3-(2-hydroxyethyl)urea] |  |  |  |  |  | 26.3 | 6.31 | 3.98 | 51.3 | 5.01
12 | CC[C@@]1(O)C(=O)OCc2c1cc1n(c2=O)Cc2c-1nc1cc(F)c(C)cc1c2CNC(=O)OC [Compound 138, Methyl-(S)-((4-ethyl-8-fluoro-4-hydroxy-9-methyl-3,14-dioxo-3,4,12,14-tetrahydro-1H-pyrano[3′,4′:6,7]indolizino[1,2-b]quinolin-11-yl)methyl)carbamate] |  |  |  |  |  | 0.389 | 0.871 | 0.479 | 0.617 | 0.195
13 | CC[C@@]1(O)C(=O)OCc2c1cc1n(c2=O)Cc2c-1nc1cc(F)c(C)cc1c2CNC(=O)OCCO [Compound 139, 2-hydroxyethyl (S)-((4-ethyl-8-fluoro-4-hydroxy-9-methyl-3,14-dioxo-3,4,12,14-tetrahydro-1H-pyrano[3′,4′:6,7]indolizino[1,2-b]quinolin-11-yl)methyl)carbamate] |  |  |  |  |  | 7.08 | 1.51 | 1.2 | 5.01 | 1.07
14 | CC[C@@]1(O)C(=O)OCc2c1cc1n(c2=O)Cc2cc3cc(N)c(F)cc3nc2-1 [Compound 140, (S)-9-amino-4-ethyl-8-fluoro-4-hydroxy-1,12-dihydro-14H-pyrano[3′,4′:6,7]indolizino [1,2-b]quinoline-3,14(4H)-dione] |  |  |  |  |  | 0.309 | 0.708 | 0.316 | 0.457 | 0.331
15 | CC[C@@]1(O)C(=O)OCc2c1cc1n(c2=O)Cc2c-1nc1cc(F)c(N)cc1c2CO [Compound 141, (S)-9-amino-4-ethyl-8-fluoro-4-hydroxy-11-(hydroxymethyl)-1,12-dihydro-14H-pyrano[3′,4′:6,7]indolizino[1,2-b]quinoline-3,14(4H)-dione] |  |  |  |  |  | 1.02 | 1.45 | 0.347 | 2.82 | 0.309
16 | CC[C@@]1(O)C(=O)OCc2c1cc1n(c2=O)Cc2c-1nc1cc(F)c(N)cc1c2CN1CCOCC1 [Compound 142, (S)-9-amino-4-ethyl-8-fluoro-4-hydroxy-11-(morpholinomethyl)-1,12-dihydro-14H-pyrano[3′,4′:6,7]indolizino[1,2-b]quinoline-3,14(4H)-dione] |  |  |  |  |  | 1.29 | 1.29 | 0.631 | 1.29 | 0.759
17 | CC[C@@]1(O)C(=O)OCc2c1cc1n(c2=O)Cc2c-1nc1cc(F)c(N)cc1c2CNC(=O)OC [Compound 143, Methyl (S)-((9-amino-4-ethyl-8-fluoro-4-hydroxy-3,14-dioxo-3,4,12,14-tetrahydro-1H-pyrano[3′,4′:6,7]indolizino[1,2-b]quinolin-11-yl)methyl)carbamate] |  |  |  |  |  | 0.708 | 0.708 | 0.389 | 2.82 | 0.851
18 | CC[C@@]1(O)C(=O)OCc2c1cc1n(c2=O)Cc2c-1nc1cc(F)c(N)cc1c2CNC(=O)NC [Compound 144, (S)-1-((9-amino-4-ethyl-8-fluoro-4-hydroxy-3,14-dioxo-3,4,12,14-tetrahydro-1H-pyrano[3′,4′:6,7]indolizino[1,2-b]quinolin-11-yl)methyl)-3-methylurea] |  |  |  |  |  | 22.4 | 22.4 | 0.794 | 69.2 | 13.2
